The source of these data is patent US20120231994A1, “ANTAGONISM OF HUMAN FORMYL PEPTIDE RECEPTOR FOR TREATMENT OF DISEASE” (NIKAN PHARMACEUTICALS, LLC, priority 2009, published 2012).

SMILES strings stand for the structures.

As a reminder, the IC50 is the concentration needed to halve the response being measured. A high value points to weaker potency in that assay.

One experiment relates to Sprague-Dawley Rats. The experiment is described as follows: Multiple Oral Gavage Toxicity Study of Cyclosporin H in Sprague-Dawley Rats with Toxicokinetics, hematology. It counts as in vivo. The following applies: animals to which CsH had been administered (see Table 1).
Experiment [1] has as its system calcineurin mediated signaling. As to conditions: cited from earlier work.
For the next experiment, the target named is T1, hFPR (Homo sapiens, UniProt P21462).
T1 sequence (P21462 1-350): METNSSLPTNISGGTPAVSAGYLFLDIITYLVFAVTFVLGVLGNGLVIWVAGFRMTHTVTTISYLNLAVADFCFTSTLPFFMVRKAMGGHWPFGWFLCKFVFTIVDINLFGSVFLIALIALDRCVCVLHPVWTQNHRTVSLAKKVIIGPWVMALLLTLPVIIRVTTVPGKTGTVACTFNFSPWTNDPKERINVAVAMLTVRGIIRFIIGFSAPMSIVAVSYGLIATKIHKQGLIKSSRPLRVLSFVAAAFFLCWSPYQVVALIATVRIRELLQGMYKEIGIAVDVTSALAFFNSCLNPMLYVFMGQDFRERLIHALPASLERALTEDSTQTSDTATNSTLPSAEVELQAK
Nature of the experiment: radionuclide binding competition assay using fMLF peptide as internal standard. The text has this:
Provided herein is the use of formyl peptide receptor antagonists in the therapy of diseases or disorders involving inappropriate, exaggerated, or prolonged neutrophil response (i.e. recruitment and/or activation). […] Thus the cyclosporins of this invention include dihydroCsH, as well as compounds of Formula I that maintain FPR inhibitory activity.

Consider `C/C=C/C[C@@H](C)[C@@H](O)[C@H]1C(=O)N[C@@H](CC)C(=O)N(C)CC(=O)N(C)[C@@H](CC(C)C)C(=O)N[C@@H](C(C)C)C(=O)N(C)[C@@H](CC(C)C)C(=O)N[C@@H](C)C(=O)N[C@H](C)C(=O)N(C)[C@@H](CC(C)C)C(=O)N(C)[C@@H](CC(C)C)C(=O)N(C)[C@H](C(C)C)C(=O)N1C` [CsH, Cyclosporine H], for which the circulating eosinophils result with Sprague-Dawley Rats was “significant decrease”. For the same molecule, the “effect on calcineurin mediated signaling” value in experiment [1] is “no effect”. As to `CCCC[C@@H](C)[C@@H](O)[C@H]1C(=O)N[C@@H](CC)C(=O)N(C)CC(=O)N(C)[C@@H](CC(C)C)C(=O)N[C@@H](C(C)C)C(=O)N(C)[C@@H](CC(C)C)C(=O)N[C@@H](C)C(=O)N[C@H](C)C(=O)N(C)[C@@H](CC(C)C)C(=O)N(C)[C@@H](CC(C)C)C(=O)N(C)[C@H](C(C)C)C(=O)N1C` [dihydroCsH, Dihydrocyclosporin H], on hFPR, the IC50 came to 7.99 nM.
